Experimental data reported in patent US20050171036A1, “Use of antitumor indolopyrrolocarbazole derivative and other anticancer agent in combination” (priority 2002, published 2005).

Columns and labels:
Assay type in all cases: in vivo
[1] = tested on: P388 mouse leukemia cells; assay: Survival of mice with intraperitoneal P388 leukemia, equivalent-ILS doses (Example 4); settings: CDF1 mice, P388 i.p.; single i.p. dose day 1; Compound A 25 mg/kg alone, ADM 1.5 mg/kg alone, Compound A 5 + ADM 0.3 mg/kg
Procedure: P388 mouse leukemia cells (1×10^6 cells) were transplanted intraperitoneally per mouse (day 0). One drug or two drugs were intraperitoneally administered on the next day (day 1). […] The ratio of increased life span (ILS %) was determined in the same manner as in Example 2.

[2] = Toxicity of equivalent-ILS doses given intraperitoneally for 5 consecutive days (Example 4); settings: ADM 1.5 mg/kg alone, Compound A 5 + ADM 0.3 mg/kg
Procedure: This dose was intraperitoneally administered to mice once a day for consecutive 5 days. Thereafter, whether the animal was alive or dead was observed, and the effect of lowering toxicity was judged. As the toxicity index, the changes in the body weight between that before the administration and that on the subsequent day after the administration were recorded.

[3] = tested on: P388 mouse leukemia cells; assay: Survival of mice with intraperitoneal P388 leukemia, combined use (Example 2); settings: CDF1 mice, P388 i.p., single i.p. dose day 1, Compound A 75, CDDP 1.67, ADM 1.5, VP-16 7.5 mg/kg; for Number of days survived (average ± standard deviation): complete remission counted as 60 days; for Increased life span (ILS %): versus control
Procedure: P388 mouse leukemia cells (1×10^6 cells) were transplanted intraperitoneally per mouse (day 0). One drug or two drugs were intraperitoneally administered on the next day (day 1). […] The ratio of increased life span (ILS %) was determined according to the following equation: ILS %=((the number of survived days for the group treated with drug)/(the number of survived days for the control group without drug)−1)×100
The combination index (CI) showing combination effect was determined by the following equation in accordance with the method by Uchida et al. (Uchida et al., Gan to Kagaku Ryouhou (Cancer and Chemotherapy), 25, 75-78 (1998)) based on the ILS % obtained from the treatment using one drug and the ILS % obtained from the combined treatment. CI=ILS % of the combined treatment/(ILS % with J-107088 (Compound A) alone+ILS % with another drug)
CI>1: synergistic effect, CI=1: additive effect, CI<1: antagonistic effect

| Structure (SMILES) | Ratio of increased life span (ILS %) [1] [%] | Change in body weight (g) ([2]; before administration versus day after administration, i.p. once a day for 5 days) | Number of dead animals/number of animals per group ([2]; i.p. once a day for 5 consecutive days, Compound A 25 mg/kg alone) | Number of days survived (average ± standard deviation) [3] [days] | Increased life span (ILS %) [3] [%] |
| --- | --- | --- | --- | --- | --- |
| COc1cccc2c1C(=O)c1c(O)c3c(c(O)c1C2=O)C[C@@](O)(C(=O)CO)C[C@@H]3O[C@H]1C[C@H](N)[C@H](O)[C@H](C)O1 [ADM, adriamycin (doxorubicin)] | 92 | +0.1 g | 0/4 | 19.0 ± 1.9 | 65 |
| [NH2][Pt]([NH2])([Cl])[Cl] [CDDP, cisplatin] | – | – | – | 25.4 ± 19.6 | 121 |
| COc1cc([C@@H]2c3cc4c(cc3[C@@H](O[C@@H]3O[C@@H]5CO[C@@H](C)O[C@H]5[C@H](O)[C@H]3O)[C@H]3COC(=O)[C@H]23)OCO4)cc(OC)c1O [VP-16, etoposide] | – | – | – | 17.4 ± 4.1 | 51 |
